Remaining activity and IC50 data for seven compounds are collected here from patent US20220267331A1, “DOPAMINE-B-HYDROXYLASE INHIBITORS” (BIAL - PORTELA & CA, S.A., priority 2019, published 2022).

This assay concerns the target T1, DβH (Homo sapiens, UniProt P09172).
T1 construct: 125 μL of plasma (or saline for blank reaction or standard curve); tissue Instituto Português do Sangue Transplantação, Centro Sangue Transplantação, Porto, Portugal; host or cells: human plasma from healthy donors
T1 sequence (P09172 40-617 limits assumed): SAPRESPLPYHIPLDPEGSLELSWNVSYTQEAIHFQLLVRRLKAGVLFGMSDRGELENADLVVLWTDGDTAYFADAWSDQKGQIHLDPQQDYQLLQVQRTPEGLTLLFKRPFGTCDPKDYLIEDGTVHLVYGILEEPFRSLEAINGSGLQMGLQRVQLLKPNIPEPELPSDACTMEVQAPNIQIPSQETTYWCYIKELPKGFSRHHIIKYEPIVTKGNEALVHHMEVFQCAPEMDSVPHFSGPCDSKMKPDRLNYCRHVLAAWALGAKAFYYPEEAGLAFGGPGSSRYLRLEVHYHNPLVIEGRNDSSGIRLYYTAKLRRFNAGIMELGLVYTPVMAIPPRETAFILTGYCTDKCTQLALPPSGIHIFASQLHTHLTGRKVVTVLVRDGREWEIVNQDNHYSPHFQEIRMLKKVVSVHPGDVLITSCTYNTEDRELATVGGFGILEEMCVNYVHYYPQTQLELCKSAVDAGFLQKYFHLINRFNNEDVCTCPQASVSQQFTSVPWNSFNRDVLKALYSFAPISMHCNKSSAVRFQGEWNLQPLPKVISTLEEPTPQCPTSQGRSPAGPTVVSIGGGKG
Description: Dopamine-β-hydroxylase inhibition assay in human plasma. The class given is biochemical. To be noted: for remaining activity at 0.01 µM: DβH activity in human plasma at 0.01 μM inhibitor; for remaining activity at 0.1 µM: DβH activity in human plasma at 0.1 μM inhibitor; for IC50: human plasma, curve fitting of 6 concentrations (100 nM to 0.3 nM). The procedure: The ability of a compound to inhibit DβH activity may be assessed in human plasma using the following assay.
Dopamine beta hydroxylase activity in human plasma was measured by the method of Nagatsu and Udenfriend (Nagatsu, T. and Udenfriend, S. “Photometric assay of dopamine-p-hydroxylase activity in human blood.” Clin. Chem. 18(9) 980-983, 1972) with minor modifications. Catalase, N-ethylmaleimide, tyramine, disodium fumarate, pargyline, sodium acetate, ascorbic acid, copper sulfate and octopamine were obtained from Sigma Chemical Co., St. Louis, Mo. 63178. Human plasma samples were obtained from healthy donors (Instituto Português do Sangue Transplantação, Centro Sangue Transplantação, Porto, Portugal). From date of collection, plasma was stored at −80° C. until use. Test compounds were initially prepared in dimethyl sulfoxide at a concentration of 10 mM and diluted in dimethyl sulfoxide to the required concentrations. Test compounds were further diluted in ultrapure water to a concentration 20-fold to that of the final concentration to be tested. Final concentrations of test compounds were 10 and 100 nM. The various reagents used to make up the incubation buffer were premixed and consisted of the following components: sodium acetate buffer (1 M, pH 5.0, 18 mL), sodium fumarate (0.2 M, 4.5 mL), ascorbic acid (0.2 M, 4.5 ml, freshly prepared), pargyline (20 mM, freshly prepared, 4.5 mL), N-ethylmaleimide (0.2 M, 4.5 mL), catalase (10 000 U/mL, 9 mL), copper sulfate (20 μM, 4.5 mL) and 4.5 ultrapure water. The standard incubation mixture (total volume, 950 μL) contained: 50 μL of compound or vehicle (dimethyl sulfoxide 2%); 700 μL of incubation buffer; 125 μL of plasma (or saline for blank reaction or standard curve); 75 μL of saline. The reaction mixture was placed in water bath, shaking at 37° C. and pre-incubated for 10 minutes. Tyramine (0.5 M) was added and incubation proceeded for 45 minutes. The reaction contents were exposed to air. A sample of enzyme preparation (with 125 μL of plasma) that had been added perchloric acid 2 M at the end of the pre-incubation period was used as blank. A blank for each of the tested compounds was used. For octopamine standard curve, perchloric acid 2 M was replaced by increasing concentrations of octopamine prepared in perchloric acid 2 M (0.5, 1, 2.5, 5, 7.5, 10, 15, 20 μg/mL, final concentration). The incubation was stopped by adding 200 μL of 2 M molar perchloric acid, and the mixture was centrifuged at 9000 g for 5 min. The supernatant fluid (800 μL) was transferred to a column (SPE cartridge ISOLUTE SCX-3, 100 mg) and centrifuged at 150 g for 2 min. The column was washed two more times with 0.5 ml of ultrapure water by centrifuging at 150 g for 2 min. The adsorbed octopamine was eluted twice with 0.3 mL of 4 M ammonium hydroxide by centrifuging at 150 g for 2 min. Octopamine in the eluate was then converted to p-hydroxybenzaldehyde by adding 200 μL of sodium periodate (2%) and incubating for 6 min. Excess periodate was than reduced by adding 200 μL of sodium metabisulfite (10%). Absorbance was measured at […] in a 96-well plate by use of a SpectraMAX plus 384 (Molecular Devices) with software SOFTmax® PRO Software 5.3 spectrophotometer. Absorbance was linear with octopamine concentration from 0.5 to 20 μg/mL. Dopamine beta hydroxylase activity is determined as nmol of octopamine formed/mL of plasma/hour and effect of compounds is presented as % control. Results are reported in the table below as activity in % of control at the inhibitor concentration tested.
IC50 values of selected compounds were calculated based on curve fitting of results of 6 different compound concentrations (100 nM to 0.3 nM). IC50 data are reported in nM concentration.

By remaining activity is commonly meant the signal under treatment as a percentage of the control signal. Low readings indicate a large loss of activity, high ones a small loss of activity. Broadly, the IC50 is the concentration that gives 50% inhibition. For the compound `Fc1ccc(Cl)cc1[C@]12C[C@H]1c1c(CCCN3CCOCC3)[nH]c(=S)n1C2` [Example 16, (5aS,6aR)-5a-(5-chloro-2-fluorophenyl)-1-(3-morpholinopropyl)-5,5a,6,6a-tetrahydrocyclopropa[3,4]pyrrolo[1,2-c]imidazole-3(2H)-thione], the remaining activity at 0.01 µM is 36.2%, the remaining activity at 0.1 µM came to 3.3% and the IC50 worked out at 7.7 nM.
The corresponding values for `Fc1ccc(Cl)cc1[C@]12C[C@H]1c1c(CCCNC3CCOCC3)[nH]c(=S)n1C2` [Example 17, (5aS,6aR)-5a-(5-chloro-2-fluorophenyl)-1-(3-((tetrahydro-2H-pyran-4-yl)amino)propyl)-5,5a,6,6a-tetrahydrocyclopropa[3,4]pyrrolo[1,2-c]imidazole-3(2H)-thione] are 41.8%, 3.9% and 9.9 nM.
The matching figures for `Fc1ccc(Cl)c(F)c1[C@]12C[C@H]1c1c(CCCNC3CCOCC3)[nH]c(=S)n1C2` [Example 18, (5aS,6aR)-5a-(3-chloro-2,6-difluorophenyl)-1-(3-((tetrahydro-2H-pyran-4-yl)amino)propyl)-5,5a,6,6a-tetrahydrocyclopropa[3,4]pyrrolo[1,2-c]imidazole-3(2H)-thione]: 20.1%, 1% and 4 nM.
The matching figures for `Fc1ccc(Cl)c(F)c1[C@]12C[C@H]1c1c(CCCN3CCCC3)[nH]c(=S)n1C2` [Example 19, (5aS,6aR)-5a-(3-chloro-2,6-difluorophenyl)-1-(3-(pyrrolidin-1-yl)propyl)-5,5a,6,6a-tetrahydrocyclopropa[3,4]pyrrolo[1,2-c]imidazole-3(2H)-thione]: 17%, 1% and 3 nM.
`Fc1ccc(Cl)cc1[C@]12C[C@H]1c1c(CCCN3CCCC3)[nH]c(=S)n1C2` [Example 20, (5aS,6aR)-5a-(5-chloro-2-fluorophenyl)-1-(3-(pyrrolidin-1-yl)propyl)-5,5a,6,6a-tetrahydrocyclopropa[3,4]pyrrolo[1,2-c]imidazole-3(2H)-thione] registered a remaining activity at 0.01 µM of 53.4%, a remaining activity at 0.1 µM of 9.1% and an IC50 of 9.8 nM.
For `Fc1ccc(Cl)cc1[C@]12C[C@H]1c1c(CCCN[C@H]3CCCOC3)[nH]c(=S)n1C2` [Example 21, (5aS,6aR)-5a-(5-chloro-2-fluorophenyl)-1-(3-(((S)-tetrahydro-2H-pyran-3-yl)amino)propyl)-5,5a,6,6a-tetrahydrocyclopropa[3,4]pyrrolo[1,2-c]imidazole-3(2H)-thione], the remaining activity at 0.01 µM was 45.3% and the remaining activity at 0.1 µM was determined as 8.5%.
With `Fc1ccc(Cl)c(F)c1[C@]12C[C@H]1c1c(CCCN[C@H]3CCCOC3)[nH]c(=S)n1C2` [Example 22, (5aS,6aR)-5a-(3-chloro-2,6-difluorophenyl)-1-(3-(((S)-tetrahydro-2H-pyran-3-yl)amino)propyl)-5,5a,6,6a-tetrahydrocyclopropa[3,4]pyrrolo[1,2-c]imidazole-3(2H)-thione], the remaining activity at 0.01 µM is 23.5%, the remaining activity at 0.1 µM was 3.5% and the IC50 came out at 4 nM.
